Row | melting point | Compound
1 | 249 to 251 °C | O=[N+]([O-])c1cccc(-c2n[nH]c3ccc([N+](=O)[O-])cc23)c1
2 | 150 °C (dec.) | COc1ccc(-c2n[nH]c3ccc(N)cc23)cc1OC.O=C(O)C(F)(F)F
3 | 99 °C | COc1ccccc1-c1n[nH]c2ccccc12 [Example 3, 3-(2-Methoxyphenyl)-1H-indazole]
4 | 126 °C | Fc1ccc(-c2n[nH]c3ccccc23)cc1 [Example 4, 3-(4-Fluorophenyl)-1H-indazole]
5 | 152 °C | FC(F)(F)c1ccc2[nH]nc(-c3ccccc3)c2c1 [Example 5, 3-Phenyl-5-trifluoromethyl-1H-indazole]
6 | 124 to 125 °C | Fc1ccc2[nH]nc(-c3ccccc3)c2c1 [Example 6, 5-Fluoro-3-phenyl-1H-indazole]
7 | 185 to 186 °C | O=[N+]([O-])c1ccc2[nH]nc(-c3ccccc3)c2c1 [Example 7, 5-Nitro-3-phenyl-1H-indazole]
8 | 104 °C | Nc1ccc2[nH]nc(-c3ccccc3)c2c1 [Example 8, 5-Amino-3-phenyl-1H-indazole]
9 | 153 °C | COc1ccc(-c2n[nH]c3ccc([N+](=O)[O-])cc23)cc1 [Example 21, 3-(4-Methoxyphenyl)-5-nitro-1H-indazole]
10 | 172 to 173 °C | COc1ccc(-c2n[nH]c3ccc([N+](=O)[O-])cc23)cc1OC [Example 23, 3-(3,4-Dimethoxyphenyl)-5-nitro-1H-indazole]
11 | 240 °C (dec.) | COc1ccc(-c2n[nH]c3ccc(N)cc23)cc1.Cl [Example 34, 5-Amino-3-(4-methoxyphenyl)-1H-indazole Hydrochloride]
